The source of these data is paper PMC10079954, “Rational design of phase separating peptides based on phase separating protein sequence of p53” (Scientific Reports, 2023).

Data set [1] concerns p53 monomer (L344P) mutant. Put plainly: Recruitment (enrichment index) of p53 monomer into designed peptide droplets. On the set-up: species or system human. From the text:
(§1) We prepared p53 tetramer, dimer, and monomer mutants, as described previously[8],[37],[50]. For the p53 tetramer, a thermostable and cysteine-modified human p53 mutant (C124A, C135V, C141V, W146Y, C182S, V203A, R209P, C229Y, H233Y, Y234F, N235K, Y236F, T253V, N268D, C275A, C277A, and K292C) was used[50]. The dimer and monomer mutants of p53 corresponded to L344A and L344P of the tetramer sequence, respectively[8],[37]. These p53 mutants were expressed with a glutathione S-transferase (GST) tag in E. coli and purified after cleavage of the GST tag, as described previously[50],[51]. The oligomeric state of p53 mutants was confirmed using a gel filtration column (Superdex 200; GE Healthcare). p53 mutants were labeled with Atto488 (ATTO-TEC) or Alexa488 (Thermo Fisher) using maleimide chemistry and then purified using a heparin column (GE Healthcare). We prepared Alexa488-labeled FUS-MBP as described previously[37],[39].
(§2) Recruitment evaluations were performed following the method described in our previous studies[37],[41]. Solutions containing 0.9–1.8 mM designed peptides, 0.1 µM Alexa488-labeled p53 mutants or Alexa488, 25 mM HEPES, 0.5 mM EDTA, and 1 mM DTT at pH 7.0 were used. The solutions were then incubated at 22 °C for five minutes. The aforementioned microscope was used with HILO illumination. To prevent photo-bleaching of the fluorescent samples, we used a laser power of 0.15 mW. The images were acquired at 22 °C. Using the ImageJ software, we calculated the EI values of the individual droplets as follows:2 EI=Idroplet/Isolution, where Idroplet and Isolution represent the average fluorescence intensities of the individual droplets and solutions near the droplets with background substitution, respectively.

In data set [2] the test system is p53 dimer (L344A) mutant. As to the kind of experiment: Recruitment (enrichment index) of p53 dimer into designed peptide droplets. On the set-up: species or system human. Particulars: (GGGS)3-linker versus GSGS-linker droplets; no salt, pH 7.0.
Excerpt: as §1
Recruitment evaluations were performed following the method described in our previous studies[37],[41]. […] Using the ImageJ software, we calculated the EI values of the individual droplets as follows:2 EI=Idroplet/Isolution, where Idroplet and Isolution represent the average fluorescence intensities of the individual droplets and solutions near the droplets with background substitution, respectively.

Data set [3] relates to p53 tetramer. Put plainly: Recruitment (enrichment index) of p53 tetramer into designed peptide droplets. On the set-up: species or system human. The following applies: no salt, pH 7.0.
Excerpt: as §1, §2

A short description of data set [4]: Phase separation of designed peptides by DIC and fluorescence microscopy. Format: physicochemical. The following applies: DIC microscopy; 0.9–1.8 mM peptide, 25 mM HEPES, 0.5 mM EDTA, pH 7.0, no salt, MPC polymer-coated coverslip, 20 or 22 °C. As to the method: Differential interference contrast (DIC) microscopy confirmed that these peptides (0.9–1.8 mM) underwent phase separation in 25 mM HEPES and 0.5 mM EDTA at pH 7.0 (Fig. 2B). To prevent the melting of clusters on the coverslip surface, 2-methacryloyloxyethyl phosphorylcholine (MPC) polymer coating was used[36],[37] (Supplementary Fig. S1). Samples were prepared by sonicating a 2 mM peptide solution or diluting the peptide solution from a 10 mM peptide stock after storage under freezing conditions. Four of the designed peptides, except DPp53N-GSGS-DPp53C2, formed μm-sized spherical clusters. Fluorescence microscopy confirmed the high concentration of peptides labeled with the fluorescent dye Alexa488 in the clusters (Fig. 2B). […] Cross-β structure was also supported by the observation of intrinsic fluorescence upon 400–440 nm excitation[40] (Supplementary Fig. S2). […]
(§3) The DIC and fluorescence modes of an inverted microscope (IX-73; Olympus, Tokyo, Japan) equipped with microscopic objectives (60 × and 10 ×) and a camera (DP74) were used, as described previously. […] DIC and fluorescence images were obtained at 20 or 22 °C. For intrinsic fluorescence measurements, the excitation and detection wavelengths were 440–440 nm and larger than 460 nm, respectively.

A short description of data set [5]: Salt and 1,6-hexanediol dependence of droplet/aggregate formation (scattering at 350 nm, DIC). Format: physicochemical. The following applies: 1 mM peptide, 25 mM HEPES, 0.5 mM EDTA, pH 7.0, 22 °C; scattering at 350 nm and DIC. On the procedure: We detected light scattering corresponding to the designed peptide droplets by measuring OD350 values using an absorbance spectrometer (NanoDrop One; Thermo Fisher).
(A, B) Effect of additives, 1,6-hexandiol (1,6-HD) and NaCl, on aggregate formation of DPp53N-GSGS-DPp53C2 was monitored as the scattering intensity observed at 350 nm (A) and via DIC images (B). The measurements were conducted in a solution containing 25 mM HEPES, 0.5 mM EDTA, and 1 mM DPp53N-GSGS-DPp53C2 in the presence or absence of additives at pH 7.0 and 22 °C.
Fig. S7 Designed peptide droplets are sensitive to salt concentration but not to 1,6-hexandiol. (A, B) Salt-concentration dependence of droplet formation of designed peptides monitored as the scattering intensity at 350 nm (A) and via DIC images (B). (C, D) Effect of 1,6-hexandiol on droplet formation of designed peptides monitored as the scattering intensity at 350 nm (C) and via DIC images (D). The measurements were performed in a solution containing 1 mM designed peptides, 25 mM HEPES, and 0.5 mM EDTA at pH 7.0 and 22 °C. In panels (A) and (C), the errors denote the standard errors of at least three measurements.

A short description of data set [6]: Cross-β structure detection with amyloid-sensitive probe Picogreen. Format: physicochemical. The following applies: Picogreen 25 µM, 25 mM HEPES, 0.5 mM EDTA, pH 7.0. As to the method:
Differential interference contrast (DIC) microscopy confirmed that these peptides (0.9–1.8 mM) underwent phase separation in 25 mM HEPES and 0.5 mM EDTA at pH 7.0 (Fig. 2B). To prevent the melting of clusters on the coverslip surface, 2-methacryloyloxyethyl phosphorylcholine (MPC) polymer coating was used[36],[37] (Supplementary Fig. S1). Samples were prepared by sonicating a 2 mM peptide solution or diluting the peptide solution from a 10 mM peptide stock after storage under freezing conditions. Four of the designed peptides, except DPp53N-GSGS-DPp53C2, formed μm-sized spherical clusters. Fluorescence microscopy confirmed the high concentration of peptides labeled with the fluorescent dye Alexa488 in the clusters (Fig. 2B). […] Cross-β structure was also supported by the observation of intrinsic fluorescence upon 400–440 nm excitation[40] (Supplementary Fig. S2). Clusters of aromatic W residues in DPp53N-GSGS-DPp53C2 may lead to the formation of solid aggregates, which is consistent with the results of different systems[21],[34].
as §3, with “previously. We used the solution containing 0.9–1.8 mM designed peptide, 0.1 μM Alexa488-labeled peptide, 25 mM HEPES, and 0.5 mM EDTA at pH 7.0. To detect the cross-β structure, picogreen was added at 25 µM for DPp53N-GSGS-DPp53C2 or 2.5 µM for others instead of the Alexa488-labeled peptide.” for “previously.”
Fig. S8 Time course of cross-β structure formation of designed peptides in droplets monitored by DIC and fluorescence images. The fluorescence was detected corresponding to the amyloid marker Picogreen at 2.5 µM in a solution containing 0.9 mM designed peptides, 25 mM HEPES, and 0.5 mM EDTA at pH 7.0 and 22 °C.

The target in data set [7] is 5-FAM-labeled DP_(p53N). Put plainly: fluorescence polarisation; fluorescence anisotropy; non-labeled peptide titrated into 40 nM 5-FAM-labeled DP_(p53N); 25 mM HEPES, 0.5 mM EDTA, 2 mg/mL BSA, 2 mM Trolox, pH 7.0, 25 °C; one-to-one binding model. (In general: Fluorescence polarisation rises when a labelled molecule tumbles more slowly, as on binding a larger partner.)

On to “RRRVVQRRRRGGGSGGGSGGGSDDDDDDD [DPp53N-(GGGS)3-D7]”, for which the “Decrease of average EI of p53 monomer mutant compared to the GSGS-linker peptide” value in data set [1] ((GGGS)3-linker versus GSGS-linker droplets, no salt, pH 7.0) turned out to be 1.8 fold. Moreover, in data set [2], the “Increase of average EI of p53 dimer mutant compared to the GSGS-linker peptide” value amounted to 3.3 fold. Moreover, in data set [3] ((GGGS)3-linker versus GSGS-linker droplets), the “Increase of average EI of p53 tetramer compared to the GSGS-linker peptide” value was 3.1 fold.
Consider “RRRVVQRRRRGSGSDDDASQEDDD [DPp53N-GSGS-DPp53C1]”, for which, in data set [1] (0.9–1.8 mM designed peptide, 0.1 µM Alexa488-labeled p53, 25 mM HEPES, 0.5 mM EDTA, 1 mM DTT, pH 7.0, 22 °C, ± standard error, SEM), the “Enrichment index (EI) of p53 monomer (L344P) mutant in peptide droplets” value is reported as 14.7 ± 0.5. In data set [3] (droplet interior regions, surface not included), the “Decrease of average EI of p53 tetramer relative to p53 monomer” value is on record as 2.6 fold.
Turning to “RRRVVQRRRRGSGSEDDDWWMWWD [DPp53N-GSGS-DPp53C2]”, in data set [4], the “Cluster morphology (phase separation)” value is “non-spherical clusters that corresponded to solid aggregates”. Further, in data set [5], the “Aggregate formation at high concentrations of salt and 1,6-hexanediol” value is on record as “not significantly suppressed”. Also, the “Picogreen fluorescence of clusters” value in data set [6] is recorded as “high intensity”.
Regarding GSGSDDDDDDD [GSGS-D7], in data set [7], the fold higher affinity than the DP (p53C)1 fragment for the DP (p53N) fragment came out at 2 fold.
